Measurements published in patent publication US20070179121A1, “Method of treating pediatric patients with corticosteroids” (priority 2006, published 2007).

System: HPA-axis
Test: HPA-axis suppression: serum cortisol before and 30 minutes after intravenous cosyntropin stimulation, pediatric atopic dermatitis patients
Assay type: in vivo, human (pediatric patients)
Conditions: for Not suppressed: percent in brackets
Protocol: At the baseline visit, physical examinations were performed, including measurements of height, weight, and vital signs, and female subjects of childbearing potential underwent a urine pregnancy test (UPT). Patients with any significant disease of the hepatic, renal, endocrine, musculoskeletal, or nervous system were excluded. At Screening/Baseline, each qualified patient was assessed for a normally functioning HPA axis. Male or female patients with clinically diagnosed atopic dermatitis, involving ≧20% of the total body surface area (BSA), were randomized to receive either qd (once a day) or bid (twice a day) treatment in 4 sequential cohorts. The “rule of nines” method was used in calculating affected BSA.
Enrollment in the 4 cohorts was as follows: Cohort 1-33 patients, 12 to <18 years of age; Cohort 2-32 patients, 6 to <12 years of age; Cohort 3-30 patients, 2 to […] Cohort 4-31 infants, 3 months to <2 years of age.
Enrollment into each cohort began only after evaluation of the preceding cohort in order to minimize the risk of systemic toxicity to the study subjects. Four observations of HPA-axis suppression in a single treatment group per cohort were considered as evidence of a clinically significant risk.
Patients who met the inclusion/exclusion criteria were randomized to receive topical fluocinonide either qd or bid. Patients/guardians were instructed to apply a thin layer of the study product to all treatable areas once or twice daily for 14 days. If the areas to be treated were hairy, patients/guardians were instructed to part the hair to allow direct contact between the study product and the lesion. Patients/guardians were also instructed not to apply study product to lesions of the face, groin, perianal area, and axillae. At the end of Weeks 1, 2, and 4, patients returned to the study site in order for the investigator to perform designated evaluations, review treatment compliance and concomitant therapy, and to collect information regarding adverse events.
The potential of fluocinonide to suppress the HPA-axis was assessed by determining the rate of incidence of suppression, when suppression was defined as a serum cortisol level ≦18 μg/dL, 30 minutes after intravenous cosyntropin stimulation. For a subject to be evaluable for HPA-axis suppression, the subject must have received at least 2 full weeks of fluocinonide treatment prior to the cosyntropin challenge. Pre-and post-cosyntropin-stimulation blood samples were obtained between 7:30 and 8:30 AM to account for diurnal variation in cortisol levels, at the Baseline and Week 2 visits, as directed in the Cortrosyn® package insert. Cortrosyn® is a drug that stimulates the adrenal gland. […] The dose and administration of cosyntropin followed the labeling of the product. Specifically, the dose for subjects 3 to 17 years of age was 0.25 mg, and the dose for subjects 3 months to 2 years old was 0.125 mg. At the end of the 14-day treatment period, any subject with a post-stimulation cortisol level ≦18 μg/dL was re-tested at Week 4 and once every 4 weeks thereafter until the post-stimulation levels were within normal limits.
Mean post-stimulation cortisol levels measured at Baseline and at Week 2 were compared using a paired t test.

[1] = End of Week 2, Cohort 1 (12-<18 years), bid
[2] = End of Week 2, Cohort 1 (12-<18 years), qd
[3] = End of Week 2, Cohort 2 (6-<12 years), bid
[4] = End of Week 2, Cohort 2 (6-<12 years), qd
[5] = End of Week 2, Cohort 3 (2-<6 years), bid
[6] = End of Week 2, Cohort 3 (2-<6 years), qd
[7] = End of Week 2, Cohort 4 (3 months to <2 year), bid
[8] = End of Week 2, Cohort 4 (3 months to <2 year), qd
[9] = Screening, Cohort 1 (12-<18 years), bid
[10] = Screening, Cohort 1 (12-<18 years), qd

CC(=O)OCC(=O)[C@@]12OC(C)(C)O[C@@H]1C[C@H]1[C@@H]3C[C@H](F)C4=CC(=O)C=C[C@]4(C)[C@@]3(F)[C@@H](O)C[C@@]12C [Fluocinonide, pregna-1,4-diene-3,20-dione,21-(acetyloxy)-6,9-difluoro-11-hydroxy-16, 17-[(1-methylethylidene)bis(oxy)]-,(6α., 11β,16α)-]
Patients who met the criterion for HPA-axis suppression (Cohort 1, bid, 1 of 15): 6.7%
Patients who met the criterion for HPA-axis suppression (Cohort 2, bid, 2 of 16): 12.5%
Patients who met the criterion for HPA-axis suppression (Cohort 3, bid, Week 2, 1 of 15, samples suspected reversed, not counted as suppression): 6.7%
Subjects who experienced HPA-axis suppression (Cohort 4): None
Cortisol increase in levels, Mean ± SD [1]: 8.6 ± 4.7 µg/dL
Cortisol increase in levels, Range [1]: 1.2 to 17.0 µg/dL
Cortisol pre-stimulation level, Mean ± SD [1]: 17.2 ± 8.3 µg/dL
Cortisol pre-stimulation level, Range [1]: 7.1 to 34.2 µg/dL
Not suppressed [1]: 14 (93.3) N
Cortisol increase in levels, Mean ± SD [2]: 9.3 ± 5.1 µg/dL
Cortisol increase in levels, Range [2]: 3.5 to 22.2 µg/dL
Cortisol pre-stimulation level, Mean ± SD [2]: 17.6 ± 7.6 µg/dL
Cortisol pre-stimulation level, Range [2]: 1.2 to 32.9 µg/dL
Not suppressed [2]: 15 (100) N
Cortisol increase in levels, Mean ± SD [3]: 11.5 ± 5.2 µg/dL
Cortisol increase in levels, Range [3]: -3.5 to 20.3 µg/dL
Cortisol pre-stimulation level, Mean ± SD [3]: 12.3 ± 4.9 µg/dL
Not suppressed [3]: 14 (87.5) N
Cortisol increase in levels, Mean ± SD [4]: 11.0 ± 4.8 µg/dL
Cortisol increase in levels, Range [4]: -2.3 to 17.8 µg/dL
Cortisol pre-stimulation level, Mean ± SD [4]: 13.7 ± 5.6 µg/dL
Cortisol pre-stimulation level, Range [4]: 6.9 to 29.3 µg/dL
Cortisol post-stimulation level, Mean ± SD (End of Week 2, Cohort 2 (6-<12 years), qd, P = 0.015 vs screening): 24.7 ± 3.0 µg/dL
Cortisol post-stimulation level, Mean ± SD (End of Week 2, Cohort 2 (6-<12 years), qd, P = 0.015 vs screening, listed as fluocinonide): 24.7 µg/dL
Not suppressed [4]: 15 (100) N
Cortisol increase in levels, Mean ± SD [5]: 11.0 ± 10.4 µg/dL
Cortisol increase in levels, Range [5]: -19 to 29.1 µg/dL
Cortisol pre-stimulation level, Mean ± SD [5]: 15.0 ± 5.9 µg/dL
Not suppressed [5]: 15 (100) N
Cortisol increase in levels, Mean ± SD [6]: 12.7 ± 4.9 µg/dL
Cortisol increase in levels, Range [6]: 3.1 to 22.0 µg/dL
Cortisol pre-stimulation level, Mean ± SD [6]: 15.4 ± 7.0 µg/dL
Not suppressed [6]: 15 (100) N
Cortisol increase in levels, Mean ± SD [7]: 16.5 ± 6.6 µg/dL
Cortisol increase in levels, Range [7]: 7.0 to 29.7 µg/dL
Cortisol pre-stimulation level, Mean ± SD [7]: 13.0 ± 4.6 µg/dL
Not suppressed [7]: 15 (100) N
Cortisol increase in levels, Mean ± SD [8]: 19.9 ± 7.1 µg/dL
Cortisol increase in levels, Range [8]: 6.4 to 29.9 µg/dL
Cortisol pre-stimulation level, Mean ± SD [8]: 10.4 ± 3.2 µg/dL
Not suppressed [8]: 15 (100) N
Cortisol increase in levels, Mean ± SD [9]: 11.1 ± 3.7 µg/dL
Cortisol increase in levels, Range [9]: 4.3 to 17.4 µg/dL
Cortisol post-stimulation level, Mean ± SD [9]: 26.8 ± 8.0 µg/dL
Cortisol post-stimulation level, Range [9]: 18.3 to 50.4 µg/dL
Cortisol pre-stimulation level, Mean ± SD [9]: 15.7 ± 10.3 µg/dL
Cortisol pre-stimulation level, Range [9]: 0.9 to 42.7 µg/dL
Cortisol increase in levels, Mean ± SD [10]: 9.3 ± 5.2 µg/dL
Cortisol increase in levels, Range [10]: -1.2 to 22.1 µg/dL
Cortisol post-stimulation level, Mean ± SD [10]: 26.4 ± 3.7 µg/dL
Cortisol post-stimulation level, Range [10]: 18.2 to 31.3 µg/dL
Cortisol pre-stimulation level, Mean ± SD [10]: 17.2 ± 6.6 µg/dL
